Assay results taken from the supplement of paper PMC10307832.

Assays:
Assay in all cases: relative viability (nuclei count vs DMSO), 5 days (fraction); higher = more cells survive
[1] = compound: O=C(NCCCNc1nc(Nc2cccc(NC(=O)N3CCCC3)c2)ncc1I)c1cccs1 [BX 795]
Procedure, shortened: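 Lung cancer cell lines received five library-drug doses (not always all listed) spaced by √10, pinned on vehicle-anchored 1536-well plates after an overnight stay at 37 °C. Five days later, with no medium change, nuclei were Hoechst-stained, imaged at 4× and counted with MetaXpress. Viability is treated-well nuclei relative to vehicle-well nuclei, as a median across plates. Passing plates had control CV below 25% and at least one doubling.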

[2] = compound: O=C(NCCCNc1nc(Nc2cccc(NC(=O)N3CCCC3)c2)ncc1I)c1cccs1 [BX 795] + Nc1ncn([C@H]2C[C@H](O)[C@@H](CO)O2)c(=O)n1 [Decitabine] (partner 2 µM)
Procedure, shortened: (§1)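 Relative viability equals treated-well nuclei counts divided by vehicle-well nuclei counts. Counts came from 4× images of lung cancer cell lines grown in 1536-well plates for 5 days after pin-tool dosing on the day after seeding. Dosing used one drug alone or a fixed anchor-drug dose plus five library-drug doses (not always all listed) in √10 steps, and values are medians of duplicate plates.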

[3] = compound: O=C(NCCCNc1nc(Nc2cccc(NC(=O)N3CCCC3)c2)ncc1I)c1cccs1 [BX 795] + O=C(CCCCCCC(=O)Nc1ccccc1)NO [Vorinostat] (partner 1 µM)
Procedure, shortened: as §1

[4] = compound: O=C(NCCCNc1nc(Nc2cccc(NC(=O)N3CCCC3)c2)ncc1I)c1cccs1 [BX 795] + COc1cccc2cc(-c3nc([C@H]4CC[C@H](C(=O)O)CC4)n4ncnc(N)c34)[nH]c12 [OSI-027] (partner 0.5 µM)
Procedure, shortened: as §1

[5] = compound: O=C(NCCCNc1nc(Nc2cccc(NC(=O)N3CCCC3)c2)ncc1I)c1cccs1 [BX 795] + NC(=O)Nc1cc(-c2cccc(F)c2)sc1C(=O)N[C@H]1CCCNC1 [AZD7762] (partner 0.2 µM)
Procedure, shortened: as §1

[6] = compound: O=C(NCCCNc1nc(Nc2cccc(NC(=O)N3CCCC3)c2)ncc1I)c1cccs1 [BX 795] + Cc1cc(Nc2cc(N3CCN(C)CC3)nc(Sc3ccc(NC(=O)C4CC4)cc3)n2)n[nH]1 [Tozasertib] (partner 0.1 µM)
Procedure, shortened: as §1

[7] = compound: O=C(NCCCNc1nc(Nc2cccc(NC(=O)N3CCCC3)c2)ncc1I)c1cccs1 [BX 795] + Nc1nc2[nH]cc(CCc3ccc(C(=O)N[C@@H](CCC(=O)O)C(=O)O)cc3)c2c(=O)[nH]1 [Pemetrexed] (partner 0.2 µM)
Procedure, shortened: as §1

[8] = compound: O=C(NCCCNc1nc(Nc2cccc(NC(=O)N3CCCC3)c2)ncc1I)c1cccs1 [BX 795] + CC(=O)c1c(C)c2cnc(Nc3ccc(N4CCNCC4)cn3)nc2n(C2CCCC2)c1=O [Palbociclib] (partner 0.5 µM)
Procedure, shortened: as §1

[9] = compound: O=C(NCCCNc1nc(Nc2cccc(NC(=O)N3CCCC3)c2)ncc1I)c1cccs1 [BX 795] + O=C(c1cc(Cc2n[nH]c(=O)c3ccccc23)ccc1F)N1CCN(C(=O)C2CC2)CC1 [Olaparib] (partner 8 µM)
Procedure, shortened: as §1

[10] = compound: O=C(NCCCNc1nc(Nc2cccc(NC(=O)N3CCCC3)c2)ncc1I)c1cccs1 [BX 795] + CC(=O)Nc1cccc(-n2c(=O)n(C3CC3)c(=O)c3c(Nc4ccc(I)cc4F)n(C)c(=O)c(C)c32)c1 [Trametinib] (partner 0.02 µM)
Procedure, shortened: as §1

[11] = compound: O=C(NCCCNc1nc(Nc2cccc(NC(=O)N3CCCC3)c2)ncc1I)c1cccs1 [BX 795] + N=C(N)NC(=N)NCCc1ccccc1 [Phenformin] (partner 250 µM)
Procedure, shortened: as §1

[12] = compound: O=C(NCCCNc1nc(Nc2cccc(NC(=O)N3CCCC3)c2)ncc1I)c1cccs1 [BX 795] + Cc1nc(Nc2ncc(C(=O)Nc3c(C)cccc3Cl)s2)cc(N2CCN(CCO)CC2)n1 [Dasatinib] (partner 0.075 µM)
Procedure, shortened: as §1

[13] = compound: O=C(NCCCNc1nc(Nc2cccc(NC(=O)N3CCCC3)c2)ncc1I)c1cccs1 [BX 795] + COc1cc2c(Oc3ccc(NC(=O)C4(C(=O)Nc5ccc(F)cc5)CC4)cc3F)ccnc2cc1OCCCN1CCOCC1 [Foretinib] (partner 0.25 µM)
Procedure, shortened: as §1

[14] = compound: O=C(NCCCNc1nc(Nc2cccc(NC(=O)N3CCCC3)c2)ncc1I)c1cccs1 [BX 795] + CCNC(=O)c1noc(-c2cc(C(C)C)c(O)cc2O)c1-c1ccc(CN2CCOCC2)cc1 [Luminespib] (partner 0.01 µM)
Procedure, shortened: as §1

## NCI-H1648
[1]; 0.04 µM
  relative viability: 0.872
[1]; 0.1265 µM
  relative viability: 0.804
[1]; 0.4 µM
  relative viability: 0.972
[1]; 1.265 µM
  relative viability: 1.01
[2]; first compound 0.04 µM
  relative viability: 0.584
[2]; first compound 0.1265 µM
  relative viability: 0.442
[2]; first compound 0.4 µM
  relative viability: 0.523
[2]; first compound 1.265 µM
  relative viability: 0.616
[3]; first compound 0.04 µM
  relative viability: 0.441
[3]; first compound 0.1265 µM
  relative viability: 0.525
[3]; first compound 0.4 µM
  relative viability: 0.668
[3]; first compound 1.265 µM
  relative viability: 0.535
[4]; first compound 0.04 µM
  relative viability: 0.258
[4]; first compound 0.1265 µM
  relative viability: 0.214
[4]; first compound 0.4 µM
  relative viability: 0.265
[4]; first compound 1.265 µM
  relative viability: 0.247
[5]; first compound 0.04 µM
  relative viability: 0.833
[5]; first compound 0.1265 µM
  relative viability: 0.756
[5]; first compound 0.4 µM
  relative viability: 0.791
[5]; first compound 1.265 µM
  relative viability: 0.911
[6]; first compound 0.04 µM
  relative viability: 0.611
[6]; first compound 0.1265 µM
  relative viability: 0.466
[6]; first compound 0.4 µM
  relative viability: 0.638
[6]; first compound 1.265 µM
  relative viability: 0.378
[7]; first compound 0.04 µM
  relative viability: 0.727
[7]; first compound 0.1265 µM
  relative viability: 0.824
[7]; first compound 0.4 µM
  relative viability: 0.834
[7]; first compound 1.265 µM
  relative viability: 1.02
[8]; first compound 0.04 µM
  relative viability: 0.267
[8]; first compound 0.1265 µM
  relative viability: 0.264
[8]; first compound 0.4 µM
  relative viability: 0.411
[8]; first compound 1.265 µM
  relative viability: 0.299
[9]; first compound 0.04 µM
  relative viability: 0.869
[9]; first compound 0.1265 µM
  relative viability: 1.51
[9]; first compound 0.4 µM
  relative viability: 1.15
[9]; first compound 1.265 µM
  relative viability: 1.11
[10]; first compound 0.04 µM
  relative viability: 0.526
[10]; first compound 0.1265 µM
  relative viability: 0.451
[10]; first compound 0.4 µM
  relative viability: 0.575
[10]; first compound 1.265 µM
  relative viability: 0.481

## NCI-H1623
[1]; 0.04 µM
  relative viability: 1.15
[1]; 0.1265 µM
  relative viability: 0.972
[1]; 0.4 µM
  relative viability: 0.989
[1]; 1.265 µM
  relative viability: 0.892
[11]; first compound 0.04 µM
  relative viability: 0.611
[11]; first compound 0.1265 µM
  relative viability: 0.568
[11]; first compound 0.4 µM
  relative viability: 0.491
[11]; first compound 1.265 µM
  relative viability: 0.516
[4]; first compound 0.04 µM
  relative viability: 0.458
[4]; first compound 0.1265 µM
  relative viability: 0.421
[4]; first compound 0.4 µM
  relative viability: 0.402
[4]; first compound 1.265 µM
  relative viability: 0.466
[6]; first compound 0.04 µM
  relative viability: 0.429
[6]; first compound 0.1265 µM
  relative viability: 0.386
[6]; first compound 0.4 µM
  relative viability: 0.392
[6]; first compound 1.265 µM
  relative viability: 0.461
[12]; first compound 0.04 µM
  relative viability: 0.537
[12]; first compound 0.1265 µM
  relative viability: 0.572
[12]; first compound 0.4 µM
  relative viability: 0.533
[12]; first compound 1.265 µM
  relative viability: 0.512
[13]; first compound 0.04 µM
  relative viability: 0.913
[13]; first compound 0.1265 µM
  relative viability: 0.952
[13]; first compound 0.4 µM
  relative viability: 0.88
[13]; first compound 1.265 µM
  relative viability: 0.892
[14]; first compound 0.04 µM
  relative viability: 0.598
[14]; first compound 0.1265 µM
  relative viability: 0.511
[14]; first compound 0.4 µM
  relative viability: 0.5
[14]; first compound 1.265 µM
  relative viability: 0.572
